# Reference: US9474790B2, “Stable, protracted GLP-1/glucagon receptor co-agonists for medical use” (Novo Nordisk A/S, priority 2013, dated 2016)
# Numbered stars: 1 amine (or outer) side, 2 acyl side, 3 side chain; on linkers, the order of the positions; unused ones are H or OH. Square brackets hold non-standard residues; d marks the D form. Side chains are listed from the residue outwards. Peptide text beside a SMILES is read from it. * marks the point of attachment. C18 diacid = O=C(O)CCCCCCCCCCCCCCCCC(=O)*; γGlu = O=C(O)[C@H](CCC(=O)[*:2])N[*:1]; AEEA = NCCOCCOCC(=O)O; Aib = CC(C)(N)C(=O)O
# Test: Thioflavin T (ThT) fibrillation assay for physical stability
# Type: physicochemical
# Settings: 250 μM in 10 mM HEPES buffer, pH 7.5, 37° C., shaking 960 rpm
# Source text: The purpose of this assay was to assess the physical stability of the glucagon derivatives of the invention in aqueous solutions.
# Low physical stability of a peptide may lead to amyloid fibril formation, which is observed as well-ordered, thread-like macromolecular structures in the sample, which eventually may lead to gel formation. This has traditionally been measured by visual inspection of the sample. However, that kind of measurement is very subjective and depending on the observer. Therefore, the application of a small molecule indicator probe is much more advantageous. Thioflavin T (ThT) is such a probe and has a distinct fluorescence signature when binding to fibrils [Naiki et al; Anal. Biochem. 1989 177 244-249; LeVine; Methods. Enzymol. 1999 309 274-284].
# The time course for fibril formation can be described by a sigmoidal curve with the following expression [Nielsen et al; Biochemistry 2001 40 6036-6046]:
# Here, as depicted in FIG. 1, F is the ThT fluorescence at the time t. The constant t0 is the time needed to reach 50% of maximum fluorescence. The two important parameters describing fibril formation are the lag-time calculated by t0−2τ and the apparent rate constant kapp 1/τ.
# Samples were prepared freshly before each assay. Each sample composition is described in the legends. The pH of the sample was adjusted to the desired value using appropriate amounts of concentrated NaOH and HCl. Thioflavin T was added to the samples from a stock solution in H2O to a final concentration of 1 μM.
# Sample aliquots of 200 μl (250 μM of the glucagon derivative/analogue in 10 mM HEPES buffer, pH 7.5) were placed in a 96 well microtiter plate (Packard OptiPlate™-96, white polystyrene). Usually, four or eight replica of each sample (corresponding to one test condition) were placed in one column of wells. The plate was sealed with Scotch Pad (Qiagen).
# Incubation at given temperature, shaking and measurement of the ThT fluorescence emission were done in a Fluoroskan Ascent FL fluorescence plate reader (Thermo Labsystems). The temperature was set to 37° C. and the plate was incubated with orbital shaking adjusted to 960 rpm with an amplitude of 1 mm. Fluorescence measurement was done using excitation through a 444 nm filter and measurement of emission through a 485 nm filter.
# Each run was initiated by incubating the plate at the assay temperature for 10 min. The plate was measured every 20 minutes for a desired period of time. Between each measurement, the plate was shaken and heated as described.
# After completion of the ThT assay the four or eight replica of each sample was pooled and centrifuged at 20000 rpm for 30 minutes at 18° C. The supernatant was filtered through a 0.22 μm filter and an aliquot was transferred to a HPLC vial.
# The concentration of peptide in the initial sample and in the filtered supernatant was determined by reverse phase HPLC using an appropriate standard as reference. The percentage fraction the concentration of the filtered sample constituted of the initial sample concentration was reported as the recovery.
# The measurement points were saved in Microsoft Excel format for further processing and curve drawing and fitting was performed using GraphPad Prism. The background emission from ThT in the absence of fibrils was negligible. The data points were typically a mean of four or eight samples.
# The data set may be fitted to Eq. (1).
row,THT assay Lag time (Ex. 76) [h],SMILES
1,45,"CC(C)C[C@H](NC(=O)[C@H](Cc1ccc(O)cc1)NC(=O)[C@H](CCCCN)NC(=O)[C@H](CO)NC(=O)[C@H](CC(C)C)NC(=O)[C@H](CC(=O)O)NC(=O)[C@H](CO)NC(=O)[C@@H](NC(=O)[C@H](Cc1ccccc1)NC(=O)[C@@H](NC(=O)CNC(=O)[C@H](CCC(N)=O)NC(=O)C(C)(C)NC(=O)[C@@H](N)Cc1c[nH]cn1)[C@@H](C)O)[C@@H](C)O)C(=O)N[C@@H](CC(=O)O)C(=O)N[C@@H](CCCCNC(=O)CC[C@H](NC(=O)CC[C@H](NC(=O)COCCOCCNC(=O)COCCOCCNC(=O)CC[C@H](NC(=O)CCCCCCCCCCCCCCCCC(=O)O)C(=O)O)C(=O)O)C(=O)O)C(=O)N[C@@H](CCCCN)C(=O)N[C@@H](CCCNC(=N)N)C(=O)N[C@@H](C)C(=O)N[C@@H](CCC(N)=O)C(=O)N[C@@H](CCC(=O)O)C(=O)N[C@@H](Cc1ccccc1)C(=O)N[C@H](C(=O)N[C@@H](CCC(N)=O)C(=O)N[C@@H](Cc1c[nH]c2ccccc12)C(=O)N[C@@H](CC(C)C)C(=O)N[C@@H](CC(C)C)C(=O)N[C@@H](CC(N)=O)C(=O)N[C@H](C(N)=O)[C@@H](C)O)C(C)C [Example 7, N^ε16-[(4S)-4-carboxy-4-[[(4S)-4-carboxy-4-[[2-[2-[2-[[2-[2-[2-[[(4S)-4-carboxy-4-(17-carboxyheptadecanoylamino)butanoyl]amino]ethoxy]ethoxy]acetyl]amino]ethoxy]ethoxy]acetyl]amino]butanoyl]amino]butanoyl]-[Aib2,Leu10,Lys16,Lys17,Glu21,Leu27]-Glucagon amide] (H-H[Aib]QGTFTSDLSKYLDK([γGlu-γGlu-AEEA-AEEA-γGlu-C18 diacid])KRAQEFVQWLLNT-NH2; N-terminus assumed)"
2,45,"CC(C)C[C@H](NC(=O)[C@H](Cc1c[nH]c2ccccc12)NC(=O)[C@H](C)NC(=O)[C@@H](NC(=O)[C@H](Cc1ccccc1)NC(=O)[C@H](CCC(=O)O)NC(=O)[C@H](CCCNC(=N)N)NC(=O)[C@H](C)NC(=O)[C@H](C)NC(=O)[C@H](CCCNC(=N)N)NC(=O)[C@H](CCCCNC(=O)CC[C@H](NC(=O)CC[C@H](NC(=O)COCCOCCNC(=O)COCCOCCNC(=O)CC[C@H](NC(=O)CCCCCCCCCCCCCCCCC(=O)O)C(=O)O)C(=O)O)C(=O)O)NC(=O)[C@H](CC(=O)O)NC(=O)[C@H](CC(C)C)NC(=O)[C@H](Cc1ccc(O)cc1)NC(=O)[C@H](CCCCN)NC(=O)[C@H](CO)NC(=O)[C@H](CC(C)C)NC(=O)[C@H](CC(=O)O)NC(=O)[C@H](CO)NC(=O)[C@@H](NC(=O)[C@H](Cc1ccccc1)NC(=O)[C@@H](NC(=O)CNC(=O)[C@H](CCC(N)=O)NC(=O)C(C)(C)NC(=O)[C@@H](N)Cc1c[nH]cn1)[C@@H](C)O)[C@@H](C)O)C(C)C)C(=O)N[C@@H](CC(C)C)C(=O)N[C@@H](CC(N)=O)C(=O)N[C@H](C(N)=O)[C@@H](C)O [Example 18, N^ε29-[(4S)-4-carboxy-4-[[(4S)-4-carboxy-4-[[2-[2-[2-[[2-[2-[2-[[(4S)-4-carboxy-4-(17-carboxyheptadecanoylamino)butanoyl]amino]ethoxy]ethoxy]acetyl]amino]ethoxy]ethoxy]acetyl]amino]butanoyl]amino]butanoyl]-[Aib2,Leu10,Lys16,Ala18,Arg20,Glu21,Ala-24,Leu27]-Glucagon amide] (H-H[Aib]QGTFTSDLSKYLDK([γGlu-γGlu-AEEA-AEEA-γGlu-C18 diacid])RAAREFVAWLLNT-NH2; N-terminus assumed)"
3,45,"CC(C)C[C@H](NC(=O)[C@H](Cc1c[nH]c2ccccc12)NC(=O)[C@H](C)NC(=O)[C@@H](NC(=O)[C@H](Cc1ccccc1)NC(=O)[C@H](CCC(=O)O)NC(=O)[C@H](CCCNC(=N)N)NC(=O)[C@H](C)NC(=O)[C@H](CCCNC(=N)N)NC(=O)[C@H](CCCNC(=N)N)NC(=O)[C@H](CCCCNC(=O)CC[C@H](NC(=O)COCCOCCNC(=O)COCCOCCNC(=O)CC[C@H](NC(=O)CC[C@H](NC(=O)CCCCCCCCCCCCCCCCC(=O)O)C(=O)O)C(=O)O)C(=O)O)NC(=O)[C@H](CCC(=O)O)NC(=O)[C@H](CC(C)C)NC(=O)[C@H](Cc1ccc(O)cc1)NC(=O)[C@H](CCCCN)NC(=O)[C@H](CO)NC(=O)[C@H](CC(C)C)NC(=O)[C@H](CC(=O)O)NC(=O)[C@H](CO)NC(=O)[C@@H](NC(=O)[C@H](Cc1ccccc1)NC(=O)[C@@H](NC(=O)CNC(=O)[C@H](Cc1c[nH]cn1)NC(=O)C(C)(C)NC(=O)[C@@H](N)Cc1c[nH]cn1)[C@@H](C)O)[C@@H](C)O)C(C)C)C(=O)N[C@@H](CC(C)C)C(=O)N[C@@H](CO)C(=O)N[C@H](C(N)=O)[C@@H](C)O [Example 32, N^ε16-[(4S)-4-carboxy-4-[[2-[2-[2-[[2-[2-[2-[[(4S)-4-carboxy-4-[[(4S)-4-carboxy-4-(17-carboxyheptadecanoylamino)butanoyl]amino]butanoyl]amino]ethoxy]ethoxy]acetyl]amino]ethoxy]ethoxy]acetyl]amino]butanoyl]-[Aib2,His3,Leu10,Glu15,Lys16,Arg20,Glu21,Ala24, Leu27,Ser28]-Glucagon amide] (H-H[Aib]HGTFTSDLSKYLEK([γGlu-AEEA-AEEA-γGlu-γGlu-C18 diacid])RRAREFVAWLLST-NH2; N-terminus assumed)"
